Measurements as given in US20220248614A1, “METHOD FOR ELIMINATING PATHOGENS IN PLANT GROWING AND CORRESPONDING SYSTEM” (priority 2019, published 2022).
Entries after “also recorded” stand apart in the source; their conditions may differ.

Assays:
[1] = system: grey mould; assay: Grey mould test series on surfaces (wet versus dried fungus); type: cell-based, Botrytis cinerea; details: ozone 2500 ppb in the air; grey mould washed from rotting cabbage, sprayed on cabbage, plastic, glass, redcurrant branch
Description: Grey mould turns out to be surprising against ozone. […] When test set-ups yielded the same result the following year, in which grey mould spores and the associated mycelium fragments washed from the surface of moist, rotting cabbage survived on a plastic surface in an ozone spray and in a concentrated ozone solution, it was completely clear that the surfaces of the mycelium and spores of grey mould are completely resistant to ozone. […] In nature, grey mould survives until the following year on the surfaces of rotten plants such as berries and succulent leaves, where they form conidia in conidiophores in moist conditions. In wet conditions, the spores hardly spread with the wind; however, once dried by the sun, the spores of the growth break free to be carried a distance of at least 50 metres by the wind if the wind speed exceeds 2 m/s. Dried mycelium and conidiophores are readily identifiable under a microscope by their structure compared with completely turgid growths.

[2] = system: cucumber powdery mildew; assay: Actual test, control of cucumber powdery mildew (April-May 2019); type: in vivo, Erysiphe sp.
Description: (§1) While the preliminary test was still underway, 20 cucumber seedlings were grown to the stage of a single leaf, the seedlings then being divided up into 5 boxes. The test groups were • 1. entirely untreated • 2. water spraying three times a week and watering of pot with ozone water for 3 and for 2 weeks before the conclusion of the test • 3. ozone spraying 3 three times a week • 4. ozone spraying 5 times a week at 7 a.m. and 4 p.m. • 5. ozone spraying 5 times a week at 7 a.m., 12 p.m. and 4 p.m.
The test area, in which mesh-bottomed pots were planted in peat with 4 pots in each box, was surrounded with the sick seedlings of the preliminary test, which were at a distance of approx. 60 cm from the test plants.

[3] = system: powdery mildew; assay: Control of powdery mildew infection by gaseous ozone or ozone solution; type: in vivo; details: ozone in gaseous form, constant exposure
Description: The spores of powdery mildew have an exceptionally high moisture content compared to the spores of other fungal diseases, which is why merely a very high air humidity suffices for a spore infection, yet the conidium is destroyed quickly when engulfed by a water droplet. The spores of the fungus spread during the day and make the plant ill at night. Depending on the species of the powdery mildew, the infection stage takes 6-12 hours. […] Using this knowledge, it is possible to construct technical applications for implementation in greenhouses as well as outdoors for the control of powdery mildew disease infections. Based on this solution, many other plant pests which spread first to the surfaces of the plants as dry spores that have acclimated to the shining of the sun during their evolution (for example grey mould) can also be controlled.

[4] = system: cucumber; assay: Tolerance of cucumber plants (leaves, roots) to ozone water; type: in vivo
Description: Mildewed cucumber leaves were collected from a garden adjacent to the research unit with which 6 outdoor cucumber seedlings were infected. After the verification of the manifestation of an infection, 18 new seedlings were grown up to the stage of the first plant leaf, at which point the plants were divided in onion boxes into 3 groups in the middle of each of which 2 ill plants were placed. The control plants were sprayed three times a week with water. The second test group was sprayed three times a day with ozone water (800 ppb) and the third test group was sprayed mornings and evenings. The sprayings were carried out with large droplets, which remained on the surface of the plant 2-4 hours. At night, the plants were covered with a monochrome plastic in order to maintain a high humidity. The sprayings took place over 6 weeks.
as §1

[5] = system: crops; details: 80-100 ppb in the air; cited from earlier work
[6] = system: Grey mould (Botrytis cinerea); assay: Grey mould test 1: spores rinsed from cabbage in ozone water, plated on PDA; type: cell-based; details: taken from wet cabbage / grown at very high humidity
Description: Grey mould spores rinsed from cabbage were homogenized in approximately 200 ml of water. 10 ml and 1 ml of this fungal suspension were added to 100 ml of water and 100 ml of ozone water (800 ppb). After 10 and 60 minutes, specimens from each treatment were placed into 3 PDA plates.

[7] = system: Grey mould (Botrytis cinerea); assay: Grey mould test 2: almost dry old fungal growth rinsed into ozone water; type: cell-based
Description: A petri dish, (a CMA plate, in which cabbage discs stimulate the formation of conidia), comprising the almost dry old fungal growth and the endophytic bacteria from the cabbage therein), grey mould spores were rinsed into 100 ml of water. 1 and 10 ml of this water were pipetted into 100 ml of water and 100 ml of ozone water. 0.5 ml of each of these water mixtures was pipetted into 3 petri dishes in order to determine the vitality of the grey mould.

[8] = system: Fusarium oxysporum; assay: Fusarium oxysporum test 1: fungal suspension in ozone water, plated on PDA; type: cell-based; details: for culture colonies in the plate: 10 minutes
Description: A plateful of F. oxyxsporum fungus without agar was homogenized with 100 ml of water. 10 ml and 1 ml of the fungal suspension were added to 100 ml of sterile water and 100 ml of 800 ppb ozone water. After 10 minutes, the inoculums from each treatment were placed in 3 PDA plates.

[9] = system: Pythium ultimum; assay: Pythium ultimum test 1: fungal culture soaked with ozone water; type: cell-based
Description: In a first dish, a fungal culture was soaked for 30 minutes with sterile water when the Pythium fungus had grown to a distance of approx. 2 cm away from the small piece of inoculating agar at the rim of the dish, which was removed with a large cork borer before the water treatment. The fungus grew to fill the dish within 16 hours during the water treatment. In a second dish, an identical treatment with ozone water (800 ppb) was carried out. A thicker fungal mycelium was visible in the Pythium culture around the site of inoculation, from which the fungus only had time to grow 2 cm before the ozone treatment. The ozone destroyed the youngest tips of the hyphae of the fungus and the hyphae that had grown apart from the agar, but had no effect on hyphae that had already grown partially into the agar.

## O=[O+][O-] [ozone]
[1]
  killing of spores and mycelium of grey mould: not able to kill off
[2]; in vivo
  sensitivity of spores (conidia) of powdery mildew: extremely sensitive
[2]; ozone concentration of the spraying 340 ppb
  survival of powdery mildew mycelium growing on the surface of the plant: survives
[3]
  effect on powdery mildew infection: satisfactory effect
[4]; actual test
  state of roots compared with the untreated test group: undamaged
[4]; actual test, ozone sprayings, any stage
  damage to the leaves of the plants: did not damage the leaves
[4]; actual test, watering of the roots with ozone water
  impact on development of fresh weight: did not have an impact
[4]; approximately 800 ppb in the water, stem bottoms watered twice a week, evaluated a week after last treatment, preliminary tests
  damage to the root system of cucumber or weakening of the plant: did not cause any damage
[5]
  effect of constant exposure on leaves: causes chlorosis in leaves
[6]
  sensitivity of grey mould mycelium and spores grown wet: ozone-resistant; also recorded: completely tolerant
[7]
  sensitivity of dried grey mould mycelium and spores: sensitive
[8]; 1 ml of inoculum in 100 ml of 800 ppb ozone water
  culture colonies in the plate: 1-3 colonies
[8]; 10 ml of inoculum in 100 ml of 800 ppb ozone water
  culture colonies in the plate: 8-17 colonies
[8]; in a solution and in sprays on surfaces of dry materials
  sensitivity of spores (conidia) and mycelium of Fusarium fungus: completely sensitive
[9]
  sensitivity of Pythium fungus (mycelium, zoospores): sensitive
